Molecules are shown by their SMILES.

Consider 20 molecules from patent publication US20090264426A1, “Bicyclic aromatic substituted pyridone derivative” (priority 2005, published 2009).

This experiment deals with T1, human MCH-1R (Homo sapiens, UniProt Q99705).
T1 construct: expressed in transfected cells; host or cells: CHO-K1
T1 sequence (Q99705 whole entry): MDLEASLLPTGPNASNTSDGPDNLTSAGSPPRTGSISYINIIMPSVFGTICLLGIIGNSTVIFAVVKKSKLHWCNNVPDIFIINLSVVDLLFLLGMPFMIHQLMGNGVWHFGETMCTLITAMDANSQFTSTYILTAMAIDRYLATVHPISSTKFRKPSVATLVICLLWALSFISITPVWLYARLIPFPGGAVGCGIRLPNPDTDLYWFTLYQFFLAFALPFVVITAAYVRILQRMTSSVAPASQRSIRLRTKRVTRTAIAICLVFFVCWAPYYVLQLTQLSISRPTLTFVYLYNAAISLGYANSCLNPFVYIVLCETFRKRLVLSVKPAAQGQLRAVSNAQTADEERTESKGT
Put plainly: MCH binding inhibition test. Conditions: 50% inhibition of specific [125I]MCH (50 pM) binding; membranes of MCH-1R expressing CHO-K1 cells; 25° C., 1 hour, pH 7.4. On the procedure:
A human MCH-1R encoding cDNA sequence [FEBS Letters, Vol. 398, 253 (1996); Biochimica et Biophisica Acta, Vol. 1401, 216 (1998)] was cloned to a plasmid vector pEF/myc/cyto (Invitrogen Corporation). The obtained expression vector was transfected to host cells CHO-K1 (American Type Culture Collection) using Lipofectamine Plus Reagent (Life Technology Inc.) to provide MCH-1R expression cells.
Membrane samples prepared from the MCH-1R expression cells were incubated with each test compound and 50 pM of [^125I]MCH (NEN Co.), in an assay buffer (50 mM Tris buffer comprising 10 mM magnesium chloride, 2 mM ethylenediamine tetraacetate, 0.01% bacitracin and 0.2% bovine serum albumin; pH 7.4) at 25° C. for an hour, followed by filtration through a glass filter GF/C (Wattman Co.). After washing the glass filter with 50 mM Tris buffer (pH 7.4) comprising 10 mM magnesium chloride, 2 mM ethylenediamine tetraacetate and 0.04% Tween-20, the radioactive activity on the glass filter was measured. The non-specific binding was measured in the presence of 1 μM human MCH and 50% inhibition concentration (IC50 value) of each test compound to the specific [^125I]MCH binding was determined.
One may read the IC50 as the concentration at which inhibition is half-maximal. A higher IC50 goes with weaker potency in that assay. The molecule `O=c1cc(OCc2ccc(F)cc2)ccn1-c1ccc2oc(CN3CCCCCC3)cc2c1` [Example 89, 1-[2-(Azepan-1-ylmethyl)-1-benzofuran-5-yl]-4-[(4-fluorobenzyl)oxy]pyridin-2(1H)-one] yielded an IC50 of 19 nM.
With `CCCNCc1ccc2cc(-n3ccc(OCc4ccc(Cl)cn4)cc3=O)ccc2n1` [Example 40, 4-[(5-Chloropyridin-2-yl)methoxy]-1-{2-[(propylamino)methyl]quinolin-6-yl}pyridin-2(1H)-one] the figure was 5.2 nM; with `O=c1cc(OCc2ccc(F)cc2)ccn1-c1ccc2cc(CN3CCC3)cnc2c1` [Example 98, 1-[3-(Azetidin-1-ylmethyl)quinolin-7-yl]-4-[(4-fluorobenzyl)oxy]pyridin-2(1H)-one], 9.6 nM; with `Cn1c(CCCN2CCCC2)nc2ccc(-n3ccc(OCc4ccc(Cl)cc4)cc3=O)cc21` [Example 65, 4-[(4-Chlorobenzyl)oxy]-1-[1-methyl-2-(3-pyrrolidin-1-ylpropyl)-1H-benzimidazol-6-yl]pyridin-2(1H)-one], 5.1 nM.
Regarding `O=c1cc(OCc2ccc(Cl)cn2)ccn1-c1ccc2nc(OCCN3CCCC3)ccc2c1` [Example 8, 4-[(5-Chloropyridin-2-yl)methoxy]-1-[2-(2-pyrrolidin-1-ylethoxy)quinolin-6-yl]pyridin-2(1H)-one], the concentration for half-maximal inhibition (IC50) was determined as 6.4 nM. This IC50 and that of the molecule before are within 1.5-fold of each other.
With `O=c1cc(OCc2ccc(Cl)cn2)ccn1-c1ccc2nc(CN3CCC3)ccc2c1` [Example 30, 1-[2-(Azetidin-1-ylmethyl)quinolin-6-yl]-4-[(5-chloropyridin-2-yl)methoxy]pyridin-2(1H)-one] the figure was 5.9 nM; with `O=c1cc(OCc2ccc(F)cc2)ccn1-c1ccc2cc(CN3CCC3)ncc2c1` [Example 99, 1-[3-(Azetidin-1-ylmethyl)isoquinolin-7-yl]-4-[(4-fluorobenzyl)oxy]pyridin-2(1H)-one], 6 nM.
For the molecule `CCCNCCc1ccc2cc(-n3ccc(OCc4ccccc4)cc3=O)ccc2n1` [Example 76, 4-(Benzyloxy)-1-{2-[2-(propylamino)ethyl]quinolin-6-yl}pyridin-2(1H)-one], the IC50 was 2.9 nM.
With `O=c1cc(OCc2ccccc2)ccn1-c1ccc2cc(CN3CCC3)ccc2n1` [Example 28, 1-[6-(Azetidin-1-ylmethyl)quinolin-2-yl]-4-(benzyloxy)pyridin-2(1H)-one] the figure was 7.6 nM; with `CCNCc1ccc2cc(-n3ccc(OCc4ccc(F)cc4)cc3=O)ccc2n1` [Example 23, 1-{2-[(Ethylamino)methyl]quinolin-6-yl}-4-[(4-fluorobenzyl)oxy]pyridin-2(1H)-one], 6.2 nM; with `O=c1cc(OCc2ccc(Cl)cn2)ccn1-c1ccc2nc(OCCCN3CCCC3)ccc2c1` [Example 20, 4-[(5-Chloropyridin-2-yl)methoxy]-1-[2-(3-pyrrolidin-1-ylpropoxy)quinolin-6-yl]pyridin-2(1H)-one], 7.8 nM.
As to `O=c1cc(OCc2ccccc2)ccn1-c1ccc2cc(OCCN3CCCC3)ccc2c1` [Example 38, 4-(Benzyloxy)-1-[6-(2-pyrrolidin-1-ylethoxy)-2-naphthyl]pyridin-2(1H)-one], the 50% inhibitory concentration (IC50) was found to be 3.1 nM.
The same measure for `Cc1c(CCCN2CCCC2)nc2ccc(-n3ccc(OCc4ccc(Cl)cn4)cc3=O)cn12` [Example 63, 4-[(5-Chloropyridin-2-yl)methoxy]-1-[3-methyl-2-(3-pyrrolidin-1-ylpropyl)imidazo[1,2-a]pyridin-6-yl]pyridin-2(1H)-one]: 22 nM; for `O=c1cc(OCc2ccccc2)ccn1-c1ccc2cn(CCN3CCCC3)nc2c1` [Example 27, 4-(Benzyloxy)-1-[2-(2-pyrrolidin-1-ylethyl)-2H-indazol-6-yl]pyridin-2(1H)-one]: 80 nM.
The same measure for `CC(C)N(C)c1nc2ccc(-n3ccc(OCCOc4ccc(F)cc4)cc3=O)cc2[nH]1` [Example 90, 4-[2-(4-fluorophenoxy)ethoxy]-1-{2-[isopropyl(methyl)amino]-1H-benzimidazol-6-yl}pyridin-2(1H)-one]: 9.8 nM.
In turn, `O=c1cc(OCc2ccc(F)cc2)ccn1OCc1ccc2nc(CN3CCCC3)ccc2c1` [Example 94, 4-[(4-Fluorobenzyl)oxy]-1-{[2-(pyrrolidin-1-ylmethyl)quinolin-6-yl]methoxy}pyridin-2(1H)-one] displayed a concentration for half-maximal inhibition (IC50) of 10.5 nM.
As to `CNCc1ccc2cc(-n3ccc(OCc4ccc(Cl)cc4)cc3=O)ccc2n1` [Example 35, 4-[(4-Chlorobenzyl)oxy]-1-{2-[(methylamino)methyl]quinolin-6-yl}pyridin-2(1H)-one], the IC50 was found to be 2.2 nM.
As to `Cn1c(CN2CCCC2)cc2ccc(-n3ccc(OCc4ccc(Cl)cn4)cc3=O)cc21` [Example 70, 4-[(5-Chloropyridin-2-yl)methoxy]-1-[1-methyl-2-(pyrrolidin-1-ylmethyl)-1H-indol-6-yl]pyridin-2(1H)-one], the IC50 came out at 11 nM. Against the preceding molecule, the IC50 is about 5-fold higher.
The same measure for `O=c1cc(/C=C/c2ccc(Cl)cn2)ccn1-c1ccc2nc(OCCN3CCCC3)cnc2c1` [Example 57, 4-[(E)-2-(5-chloropyridin-2-yl)vinyl]-1-[2-(2-pyrrolidin-1-ylethoxy)quinoxalin-6-yl]pyridin-2(1H)-one]: 10.1 nM.
With `O=c1cc(OCc2ccc(F)cc2)ccn1-c1ccc2nc(CN3CCC3)ccc2n1` [Example 95, 1-[6-(Azetidin-1-ylmethyl)-1,5-naphthyridin-2-yl]-4-[(4-fluorobenzyl)oxy]pyridin-2(1H)-one] the figure was 23 nM.
